Measured values: patent US8415469B2, “Compounds and methods for kinase modulation, and indications therefor” (Plexxikon Inc., priority 2005, dated 2013)

Tests used:
Assay type in all cases: biochemical
[1] = target: T1, Yes (Homo sapiens, UniProt P07947); assay: Z'-Lyte FRET kinase assay (Invitrogen), Yes; settings: read-out: IC50, activity toward kinase Yes
T1 construct: purchased Invitrogen (Carlsbad, Calif.), screening service
Method in brief: (§1)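 Inhibition was inferred from protease cleavage of non-phosphorylated peptide, measured as a coumarin/fluorescein ratio. Kinase reactions used 10 μM ATP for 1 h at room temperature.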

[2] = target: T2, B-Raf (Homo sapiens, UniProt P15056); assay: AlphaScreen kinase assay, B-Raf; settings: read-out: IC50, activity toward kinase B-Raf
T2 construct: purchased Upstate Biotechnology

[3] = target: T3, B-Raf V600E (Homo sapiens, UniProt P15056, V600E); assay: AlphaScreen kinase assay, B-Raf V600E; settings: read-out: IC50, activity toward kinase B-Raf V600E
T3 construct: P4254. pFastBacBD-CDC37 BRAF D437-K722-X, V600E; His6 with pFastBac HT leader (TEV site) (N); made in house; host or cells: Sf9 (baculovirus; chaperone CDC37 co-expressed)

[4] = target: T4, Ret (Homo sapiens, UniProt P07949); assay: AlphaScreen kinase assay, Ret; settings: read-out: IC50, activity toward kinase Ret
T4 construct: P1378.pET-SF BI-PTP RET H661-R1012 HIS; made in house
T4 sequence (P07949 with tags, fused parts or gaps): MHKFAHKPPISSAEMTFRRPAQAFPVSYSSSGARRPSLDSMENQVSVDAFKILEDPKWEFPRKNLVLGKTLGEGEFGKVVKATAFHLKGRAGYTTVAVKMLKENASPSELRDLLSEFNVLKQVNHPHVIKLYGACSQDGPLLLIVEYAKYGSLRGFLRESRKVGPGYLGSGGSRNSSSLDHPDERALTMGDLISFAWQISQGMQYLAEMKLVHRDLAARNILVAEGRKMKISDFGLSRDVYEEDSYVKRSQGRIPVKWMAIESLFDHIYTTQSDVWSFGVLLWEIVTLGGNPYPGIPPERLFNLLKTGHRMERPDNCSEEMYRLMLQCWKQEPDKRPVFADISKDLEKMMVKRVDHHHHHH

[5] = target: T5, EphB2 (Homo sapiens, UniProt P29323); assay: Z'-Lyte FRET kinase assay (Invitrogen), EphB2; settings: read-out: IC50, activity toward kinase EphB2
T5 construct: purchased Invitrogen (assay run by Invitrogen)
T5 sequence (P29323 19-1055): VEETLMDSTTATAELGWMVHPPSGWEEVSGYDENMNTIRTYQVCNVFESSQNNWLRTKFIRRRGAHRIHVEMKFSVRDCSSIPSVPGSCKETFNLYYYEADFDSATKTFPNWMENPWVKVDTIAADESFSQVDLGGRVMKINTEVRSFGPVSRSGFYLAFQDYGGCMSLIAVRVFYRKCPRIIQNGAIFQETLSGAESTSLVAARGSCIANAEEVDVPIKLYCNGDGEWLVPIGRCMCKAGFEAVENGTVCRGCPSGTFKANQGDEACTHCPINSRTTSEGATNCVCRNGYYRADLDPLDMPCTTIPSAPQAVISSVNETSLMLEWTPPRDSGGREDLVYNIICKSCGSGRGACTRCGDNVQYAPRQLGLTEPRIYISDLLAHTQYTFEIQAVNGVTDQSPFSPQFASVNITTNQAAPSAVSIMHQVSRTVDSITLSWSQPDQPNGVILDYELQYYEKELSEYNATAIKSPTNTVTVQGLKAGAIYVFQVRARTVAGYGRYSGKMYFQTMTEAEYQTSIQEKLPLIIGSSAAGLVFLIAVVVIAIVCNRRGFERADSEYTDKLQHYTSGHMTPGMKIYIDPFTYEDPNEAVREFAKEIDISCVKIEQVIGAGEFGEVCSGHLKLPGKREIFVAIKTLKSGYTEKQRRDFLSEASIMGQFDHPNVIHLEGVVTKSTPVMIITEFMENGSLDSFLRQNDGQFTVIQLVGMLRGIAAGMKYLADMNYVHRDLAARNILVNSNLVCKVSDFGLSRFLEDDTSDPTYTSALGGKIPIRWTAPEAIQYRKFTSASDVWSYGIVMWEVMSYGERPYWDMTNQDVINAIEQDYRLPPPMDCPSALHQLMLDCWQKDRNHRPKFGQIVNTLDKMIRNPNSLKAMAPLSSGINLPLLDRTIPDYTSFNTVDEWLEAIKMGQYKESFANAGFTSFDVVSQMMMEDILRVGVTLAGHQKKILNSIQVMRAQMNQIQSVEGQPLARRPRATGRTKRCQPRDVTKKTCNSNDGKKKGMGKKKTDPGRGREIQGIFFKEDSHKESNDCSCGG
Method in brief: as §1

T2 sequence (P15056 whole entry): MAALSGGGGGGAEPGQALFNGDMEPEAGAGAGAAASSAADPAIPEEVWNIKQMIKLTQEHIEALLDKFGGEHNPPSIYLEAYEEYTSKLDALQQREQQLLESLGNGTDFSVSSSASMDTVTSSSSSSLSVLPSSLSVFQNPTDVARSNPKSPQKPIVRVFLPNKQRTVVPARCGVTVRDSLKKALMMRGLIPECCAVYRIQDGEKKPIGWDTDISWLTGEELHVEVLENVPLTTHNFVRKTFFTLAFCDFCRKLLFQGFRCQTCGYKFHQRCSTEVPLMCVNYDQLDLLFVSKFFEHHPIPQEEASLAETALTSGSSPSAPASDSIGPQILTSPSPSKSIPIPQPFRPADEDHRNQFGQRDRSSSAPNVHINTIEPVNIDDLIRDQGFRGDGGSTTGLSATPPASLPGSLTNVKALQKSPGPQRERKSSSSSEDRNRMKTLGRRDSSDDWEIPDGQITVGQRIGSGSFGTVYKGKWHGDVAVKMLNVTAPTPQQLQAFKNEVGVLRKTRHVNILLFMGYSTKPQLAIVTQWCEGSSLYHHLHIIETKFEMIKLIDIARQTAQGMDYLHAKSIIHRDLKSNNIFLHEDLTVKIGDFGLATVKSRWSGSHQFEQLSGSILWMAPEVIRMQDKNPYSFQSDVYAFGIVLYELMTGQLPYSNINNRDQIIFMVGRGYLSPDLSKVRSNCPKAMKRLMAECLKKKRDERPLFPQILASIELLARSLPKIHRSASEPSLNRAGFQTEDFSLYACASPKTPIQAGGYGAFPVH
T1 sequence (P07947 whole entry): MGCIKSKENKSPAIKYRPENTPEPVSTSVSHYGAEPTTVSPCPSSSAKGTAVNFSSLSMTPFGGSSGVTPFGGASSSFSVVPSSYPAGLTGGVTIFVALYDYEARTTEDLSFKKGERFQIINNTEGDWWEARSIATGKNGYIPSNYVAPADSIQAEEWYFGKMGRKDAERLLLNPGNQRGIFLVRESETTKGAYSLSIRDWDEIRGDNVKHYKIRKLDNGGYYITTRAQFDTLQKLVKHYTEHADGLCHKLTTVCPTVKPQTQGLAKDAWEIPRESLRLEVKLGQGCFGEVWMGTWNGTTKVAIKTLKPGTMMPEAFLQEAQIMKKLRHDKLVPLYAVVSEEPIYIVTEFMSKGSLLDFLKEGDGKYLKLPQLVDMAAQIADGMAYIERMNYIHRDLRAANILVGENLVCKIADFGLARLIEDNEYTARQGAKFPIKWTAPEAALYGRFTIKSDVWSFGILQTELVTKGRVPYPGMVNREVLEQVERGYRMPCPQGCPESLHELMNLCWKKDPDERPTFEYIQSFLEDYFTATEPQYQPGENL
T3 sequence (P15056 with tags, fused parts or gaps V600E): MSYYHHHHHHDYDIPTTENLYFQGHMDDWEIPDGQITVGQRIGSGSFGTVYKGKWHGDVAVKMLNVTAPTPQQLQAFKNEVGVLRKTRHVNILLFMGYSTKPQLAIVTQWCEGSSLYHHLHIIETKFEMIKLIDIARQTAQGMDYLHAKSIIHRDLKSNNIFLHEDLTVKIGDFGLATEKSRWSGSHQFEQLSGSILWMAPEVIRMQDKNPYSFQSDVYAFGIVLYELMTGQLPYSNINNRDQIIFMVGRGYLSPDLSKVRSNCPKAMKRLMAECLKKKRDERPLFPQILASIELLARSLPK

Row | IC50 [1] | IC50 [2] | IC50 [3] | IC50 [4] | IC50 [5] | SMILES
1 | ≤ 10 µM | ≤ 10 µM | ≤ 10 µM | ≤ 10 µM | ≤ 10 µM | O=C(c1cc(O)ccc1F)c1c[nH]c2ncccc12 [Compound P-0005]
2 | ≤ 10 µM | ≤ 10 µM | ≤ 10 µM | ≤ 10 µM | ≤ 10 µM | O=C(O)/C=C/c1cccc(-c2cnc3[nH]cc(C(=O)c4cc(O)ccc4F)c3c2)c1 [Compound P-0010]
3 | ≤ 10 µM | ≤ 10 µM | ≤ 10 µM | ≤ 10 µM | ≤ 10 µM | Cc1c(O)cccc1C(=O)c1c[nH]c2ncc(-c3ccccc3)cc12 [Compound P-0016, (3-Hydroxy-2-methyl-phenyl)-(5-phenyl-1H-pyrrolo[2,3b]pyridin-3-yl)-methanone]
4 | ≤ 10 µM | ≤ 10 µM | ≤ 10 µM | ≤ 10 µM | ≤ 10 µM | O=C(c1cccc(O)c1)c1c[nH]c2ncc(Br)cc12 [Compound P-0019]
5 | ≤ 10 µM | ≤ 10 µM | ≤ 10 µM | ≤ 10 µM | ≤ 10 µM | O=C(c1cccc(O)c1F)c1c[nH]c2ncc(-c3cccnc3)cc12 [Compound P-0027, (2-Fluoro-3-hydroxy-phenyl)-(5-pyridin-3-yl-1H-pyrrolo[2,3-b]pyridin-3-yl)-methanone]
6 | ≤ 10 µM | ≤ 10 µM | ≤ 10 µM | ≤ 10 µM | ≤ 10 µM | O=C(c1cccc(O)c1F)c1c[nH]c2ncc(-c3ccccc3)cc12 [Compound P-0036, (2-fluoro-3-hydroxy-phenyl)-(5-phenyl-1H-pyrrolo[2,3-b]pyridin-3-yl)-methanone]
7 | ≤ 10 µM | ≤ 10 µM | ≤ 10 µM | ≤ 10 µM | ≤ 10 µM | O=C(c1cc(O)ccc1F)c1c[nH]c2ncc(-c3ccccc3)cc12 [Compound P-0045]
8 | ≤ 10 µM | ≤ 10 µM | ≤ 10 µM | ≤ 10 µM | ≤ 10 µM | Cc1ccc(F)cc1C(=O)c1c[nH]c2ncc(-c3ccc(C(N)=O)cc3)cc12 [Compound P-0050]
9 | ≤ 10 µM | ≤ 10 µM | ≤ 10 µM | ≤ 10 µM | ≤ 10 µM | Oc1cccc(Cc2c[nH]c3ncc(-c4cccs4)cc23)c1F [Compound P-0052, 2-Fluoro-3-(5-thiophen-2-yl-1H-pyrrolo[2,3-b]pyridin-3-ylmethyl)-phenol]
10 | ≤ 10 µM | ≤ 10 µM | ≤ 10 µM | ≤ 10 µM | ≤ 10 µM | Cc1c(O)cccc1C(=O)c1c[nH]c2ncc(Br)cc12 [Compound P-0055, (5-Bromo-1H-pyrrolo[2,3-b]pyridin-3-yl)-(3-hydroxy-2-methyl-phenyl)-methanone]
11 | ≤ 10 µM | ≤ 10 µM | ≤ 10 µM | ≤ 10 µM | ≤ 10 µM | Oc1cccc(Cc2c[nH]c3ncc(-c4ccsc4)cc23)c1 [Compound P-0056]
12 | ≤ 10 µM | – | ≤ 10 µM | ≤ 10 µM | ≤ 10 µM | Cc1ccc(S(=O)(=O)NCc2c[nH]c3nccc(-c4cccc(C#N)c4)c23)cc1 [Compound P-0072]
13 | ≤ 10 µM | ≤ 10 µM | ≤ 10 µM | ≤ 10 µM | ≤ 10 µM | CCCS(=O)(=O)Nc1ccc(F)c(C(=O)c2c[nH]c3ncc(-c4cccnc4)cc23)c1F [Compound P-0088, Propane-1-sulfonic acid [2,4-difluoro-3-(5-pyridin-3-yl-1H-pyrrolo[2,3-b]pyridine-3-carbonyl)-phenyl]-amide]
14 | ≤ 10 µM | ≤ 10 µM | ≤ 10 µM | ≤ 10 µM | ≤ 10 µM | COc1ccc(F)c(C(=O)c2c[nH]c3ncc(-c4cccnc4)cc23)c1 [Compound P-0090]
15 | ≤ 10 µM | ≤ 10 µM | ≤ 10 µM | ≤ 10 µM | ≤ 10 µM | CS(=O)(=O)c1cccc(-c2cnc3[nH]cc(C(=O)c4c(F)ccc(F)c4F)c3c2)c1 [Compound P-0102, [5-(3-Methanesulfonyl-phenyl)-1H-pyrrolo[2,3-b]pyridin-3-yl]-(2,3,6-trifluoro-phenyl)-methanone]
16 | ≤ 10 µM | – | ≤ 10 µM | ≤ 10 µM | ≤ 10 µM | Cc1ccccc1C(=O)c1c[nH]c2nccc(-c3cccc(NS(C)(=O)=O)c3)c12 [Compound P-0109]
17 | ≤ 10 µM | – | ≤ 10 µM | ≤ 10 µM | ≤ 10 µM | Cc1ccc(F)cc1C(=O)c1c[nH]c2nccc(-c3cccc(NS(C)(=O)=O)c3)c12 [Compound P-0124]
